Assays:
Assay in all cases: combination Emax (second highest fraction inhibited in the dose matrix, 72 h); higher = more inhibition; extreme values may be limits of the assay
[1] = tested on: A4-Fuk (B-Lymphoblastic Leukemia)
Method in brief: (§1)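 Cell lines grown in DMEM/F12 or RPMI with 10% FBS were plated in 1536-well plates and held 24 hours at 37°C, 5% CO2 before 72 hours of exposure to two-drug dose matrices, with DMSO typically at 0.2%. CellTiter-Glo 2.0 luminescence gave viability, which was converted to inhibition. Vehicle wells were set to 0 and blank wells to 1. Combination Emax is the second-highest inhibition in the matrix, and Bliss excess is the observed combination effect minus the expected EA + EB − EA·EB, where EA and EB are the single-agent effects.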

COLO-679 (Melanoma) = tested on: COLO-679 (Melanoma)
Method in brief: as §1

[2] = tested on: HAL-01 (B-Lymphoblastic Leukemia)
Method in brief: as §1

[3] = tested on: KGN (Other Solid Carcinomas)
Method in brief: as §1

[4] = tested on: KMRC-1 (Kidney Carcinoma)
Method in brief: as §1

[5] = tested on: MDA-MB-453 (Breast Carcinoma)
Method in brief: as §1

[6] = tested on: ME-180 (Cervical Carcinoma)
Method in brief: as §1

[7] = tested on: ML-2 (Acute Myeloid Leukemia)
Method in brief: as §1

[8] = tested on: MOLT-4 (T-Lymphoblastic Leukemia)
Method in brief: as §1

[9] = tested on: MV-4-11 (Acute Myeloid Leukemia)
Method in brief: as §1

[10] = tested on: Mo-T (Other Blood Carcinomas)
Method in brief: as §1

[11] = tested on: NCI-H1993 (Lung Adenocarcinoma)
Method in brief: as §1

| SMILES | combination Emax [1] | combination Emax (COLO-679 (Melanoma)) | combination Emax [2] | combination Emax [3] | combination Emax [4] | combination Emax [5] | combination Emax [6] | combination Emax [7] | combination Emax [8] | combination Emax [9] | combination Emax [10] | combination Emax [11] |
| --- | --- | --- | --- | --- | --- | --- | --- | --- | --- | --- | --- | --- |
| O=C(c1cc(Cc2n[nH]c(=O)c3ccccc23)ccc1F)N1CCN(C(=O)C2CC2)CC1 [Olaparib] + COc1nnc2ccc(N3CCC(c4ccc(OCCN5CCN(C)C(=O)[C@H]5C)cc4)CC3)nn12 [AZD5153] (first compound max 10 µM, 7x7, partner max 1 µM) | 0.876 | 0.321 | 0.801 | 0.712 | 0.277 | 0.664 | 0.424 | 0.917 | 0.591 | 1 | 0.59 | 0.459 |
| C=CCn1c(=O)c2cnc(Nc3ccc(N4CCN(C)CC4)cc3)nc2n1-c1cccc(C(C)(C)O)n1 [AZD1775] + CCc1c2c(nc3ccc(O)cc13)-c1cc3c(c(=O)n1C2)COC(=O)[C@]3(O)CC [SN-38] (first compound max 1 µM, partner max 0.3 µM) | 1 | 0.632 | 1 | 0.833 | 0.534 | 0.696 | 0.973 | 1 | 1 | 0.999 | 0.817 | 0.739 |
| Cc1c2c(nn1C)CSCc1cc(n(C)n1)CSc1cc(c3ccccc3c1)OCCCc1c(C(=O)O)n(C)c3c-2c(Cl)ccc13 [AZD5991] + CC(=O)O[C@H]1C(=O)[C@@]2(C)[C@H]([C@H](OC(=O)c3ccccc3)[C@]3(O)C[C@H](OC(=O)[C@H](O)[C@@H](NC(=O)c4ccccc4)c4ccccc4)C(C)=C1C3(C)C)[C@]1(OC(C)=O)CO[C@@H]1C[C@@H]2O [Paclitaxel] (first compound max 1 µM, 7x7, partner max 3 µM) | 1 | 0.565 | 0.99 | 0.916 | 0.508 | 0.92 | 0.7 | 1 | 0.991 | 1 | 0.658 | 0.863 |
| O=C(c1cc(Cc2n[nH]c(=O)c3ccccc23)ccc1F)N1CCN(C(=O)C2CC2)CC1 [Olaparib] + Cc1c2c(nn1C)CSCc1cc(n(C)n1)CSc1cc(c3ccccc3c1)OCCCc1c(C(=O)O)n(C)c3c-2c(Cl)ccc13 [AZD5991] (first compound max 10 µM, 7x7, partner max 1 µM) | 1 | 0.119 | 0.269 | 0.162 | 0.0973 | 0.341 | 0.1 | 1 | 0.878 | 1 | 0.0919 | 0.124 |
| O=C(c1cc(Cc2n[nH]c(=O)c3ccccc23)ccc1F)N1CCN(C(=O)C2CC2)CC1 [Olaparib] + CN(CC[C@H](CSC1=CC=CC=C1)NC2=C(C=C(C=C2)S(=O)(=O)NC(=O)C3=CC=C(C=C3)N4CCC(CC4)[C@H](C5=CC=CC=C5C6=CC=C(C=C6)Cl)O)S(=O)(=O)C(F)(F)F)CCO [AZD4320] (first compound max 10 µM, 7x7, partner max 1 µM) | 0.0633 | 0.0175 | 0.65 | 0.298 | 0.219 | 0.224 | 0.18 | 0.979 | 0.977 | 1 | 0.844 | 0.595 |
| O=C(c1cc(Cc2n[nH]c(=O)c3ccccc23)ccc1F)N1CCN(C(=O)C2CC2)CC1 [Olaparib] + CC1(C)CCC(CN2CCN(c3ccc(C(=O)NS(=O)(=O)c4ccc(NCC5CCOCC5)c([N+](=O)[O-])c4)c(Oc4cnc5[nH]ccc5c4)c3)CC2)=C(c2ccc(Cl)cc2)C1 [Venetoclax] (first compound max 10 µM, 7x7, partner max 1 µM) | 0.301 | 0.0175 | 0.926 | 0.292 | 0.182 | 0.104 | 0.14 | 0.961 | 0.7 | 1 | 0.186 | 0.0726 |
| C[C@@H](Oc1cc(-c2cnn(C3CCNCC3)c2)cnc1N)c1c(Cl)ccc(F)c1Cl [Crizotinib] + Cn1cnc2c(F)c(Nc3ccc(Br)cc3Cl)c(C(=O)NOCCO)cc21 [Selumetinib] (first compound max 10 µM, 7x7, partner max 10 µM) | 0.942 | 0.798 | 0.991 | 0.816 | 0.323 | 0.15 | 0.269 | 1 | 0.815 | 1 | 0.466 | 0.871 |
| Cc1c2c(nn1C)CSCc1cc(n(C)n1)CSc1cc(c3ccccc3c1)OCCCc1c(C(=O)O)n(C)c3c-2c(Cl)ccc13 [AZD5991] + CS(=O)(=O)CCNCc1ccc(-c2ccc3ncnc(Nc4ccc(OCc5cccc(F)c5)c(Cl)c4)c3c2)o1 [Lapatinib] (first compound max 1 µM, 7x7, partner max 10 µM) | 1 | 0.188 | 0.965 | 0.454 | 0.54 | 0.527 | 0.492 | 1 | 0.604 | 1 | 0.371 | 0.433 |
| C[C@@H](Nc1cc(F)cc(F)c1)c1cc(C(=O)N(C)C)cc2c(=O)cc(N3CCOCC3)oc12 [AZD8186] + C1CN(CCC1(C(=O)N[C@@H](CCO)C2=CC=C(C=C2)Cl)N)C3=NC=NC4=C3C=CN4 [AZD5363] (first compound max 10 µM, 7x7, partner max 10 µM) | 0.76 | 0.273 | 0.623 | 0.556 | 0.618 | 0.573 | 0.579 | 0.558 | 0.437 | 0.731 | 0.347 | 0.636 |
| C[C@@H]1COCCN1c1cc(C2([S@](C)(=N)=O)CC2)nc(-c2ccnc3[nH]ccc23)n1 [AZD6738] + Nc1ccn([C@@H]2O[C@H](CO)[C@@H](O)C2(F)F)c(=O)n1 [Gemcitabine] (first compound max 10 µM, 7x7, partner max 0.3 µM) | 0.962 | 0.82 | 1 | 0.969 | 0.801 | 0.678 | 0.913 | 1 | 1 | 1 | 0.812 | 0.939 |
| Cc1c2c(nn1C)CSCc1cc(n(C)n1)CSc1cc(c3ccccc3c1)OCCCc1c(C(=O)O)n(C)c3c-2c(Cl)ccc13 [AZD5991] + Nc1ccn([C@@H]2O[C@H](CO)[C@@H](O)C2(F)F)c(=O)n1 [Gemcitabine] (first compound max 1 µM, 7x7, partner max 0.3 µM) | 1 | 0.782 | 1 | 0.9 | 0.737 | 0.731 | 0.754 | 1 | 0.992 | 1 | 0.685 | 0.902 |
| Cc1nc(-c2cn3c(n2)-c2ccc(-c4cnn(C(C)(C)C(N)=O)c4)cc2OCC3)n(C(C)C)n1 [Taselisib] + O=C(Nc1ccc2[nH]nc(-c3ccncc3)c2c1)[C@@H]1CCN(CC(=O)N2CCN(c3ccc(-c4ncccn4)cc3)CC2)C1 [SCH772984] (first compound max 10 µM, 7x7, partner max 5 µM) | 1 | 0.851 | 0.78 | 0.816 | 0.543 | 0.721 | 0.732 | 1 | 0.837 | 0.905 | 0.477 | 0.886 |
| CS(=O)(=O)CCNCc1ccc(-c2ccc3ncnc(Nc4ccc(OCc5cccc(F)c5)c(Cl)c4)c3c2)o1 [Lapatinib] + Cn1cnc2c(F)c(Nc3ccc(Br)cc3Cl)c(C(=O)NOCCO)cc21 [Selumetinib] (first compound max 10 µM, 7x7, partner max 10 µM) | 0.979 | 0.749 | 0.516 | 0.535 | 0.696 | 0.389 | 0.476 | 0.715 | 0.501 | 0.642 | 0.477 | 0.73 |
| C=CCn1c(=O)c2cnc(Nc3ccc(N4CCN(C)CC4)cc3)nc2n1-c1cccc(C(C)(C)O)n1 [AZD1775] + Nc1ccn([C@@H]2O[C@H](CO)[C@@H](O)C2(F)F)c(=O)n1 [Gemcitabine] (first compound max 1 µM, partner max 0.3 µM) | 0.965 | 0.76 | 1 | 0.892 | 0.717 | 0.539 | 0.94 | 1 | 1 | 1 | 0.766 | 0.905 |
| C[C@@H]1COCCN1c1cc(C2([S@](C)(=N)=O)CC2)nc(-c2ccnc3[nH]ccc23)n1 [AZD6738] + C1CC(C1)(C(=O)[O-])C(=O)[O-].N.N.[Pt+2] [Carboplatin] (first compound max 10 µM, 7x7, partner max 10 µM) | 0.823 | 0.625 | 0.963 | 0.79 | 0.521 | 0.66 | 0.663 | 0.916 | 0.984 | 0.974 | 0.366 | 0.547 |
| C[C@@H](Nc1cc(F)cc(F)c1)c1cc(C(=O)N(C)C)cc2c(=O)cc(N3CCOCC3)oc12 [AZD8186] + CC(=O)c1c(C)c2cnc(Nc3ccc(N4CCNCC4)cn3)nc2n(C2CCCC2)c1=O [Palbociclib] (first compound max 10 µM, 7x7, partner max 10 µM) | 0.706 | 0.269 | 0.793 | 0.798 | 0.566 | 0.578 | 0.391 | 0.686 | 0.661 | 0.859 | 0.383 | 0.578 |
| C[C@@H](Oc1cc(-c2cnn(C3CCNCC3)c2)cnc1N)c1c(Cl)ccc(F)c1Cl [Crizotinib] + CC1=C(C(=CC=C1)Cl)NC(=O)C2=CN=C(S2)NC3=CC(=NC(=N3)C)N4CCN(CC4)CCO [Dasatinib] (first compound max 10 µM, 7x7, partner max 2 µM) | 0.922 | 0.297 | 0.961 | 0.978 | 0.815 | 0.214 | 0.644 | 0.969 | 0.826 | 0.985 | 0.383 | 0.811 |

Source: the supplement of paper PMC11061612
